The text below walks through data of ChEMBL document CHEMBL1201862, “PubChem BioAssay data set” (2004).

One experiment has as its target Bcl-2-like protein 10 (Homo sapiens, UniProt Q9HD36). Briefly: displacers of TR3 peptide from Bcl-B, primary screen, selectivity assay for Bfl-1 inhibitor project, biochemical, fluorescence polarization, FITC-TR3 peptide (AID 748).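 Further: fluorescence polarization from a fluorescein-labelled TR3 peptide binding purified Bcl-B.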
The next experiment deals with T1, Estrogen receptor (Homo sapiens, UniProt P03372).
T1 sequence (P03372 whole entry): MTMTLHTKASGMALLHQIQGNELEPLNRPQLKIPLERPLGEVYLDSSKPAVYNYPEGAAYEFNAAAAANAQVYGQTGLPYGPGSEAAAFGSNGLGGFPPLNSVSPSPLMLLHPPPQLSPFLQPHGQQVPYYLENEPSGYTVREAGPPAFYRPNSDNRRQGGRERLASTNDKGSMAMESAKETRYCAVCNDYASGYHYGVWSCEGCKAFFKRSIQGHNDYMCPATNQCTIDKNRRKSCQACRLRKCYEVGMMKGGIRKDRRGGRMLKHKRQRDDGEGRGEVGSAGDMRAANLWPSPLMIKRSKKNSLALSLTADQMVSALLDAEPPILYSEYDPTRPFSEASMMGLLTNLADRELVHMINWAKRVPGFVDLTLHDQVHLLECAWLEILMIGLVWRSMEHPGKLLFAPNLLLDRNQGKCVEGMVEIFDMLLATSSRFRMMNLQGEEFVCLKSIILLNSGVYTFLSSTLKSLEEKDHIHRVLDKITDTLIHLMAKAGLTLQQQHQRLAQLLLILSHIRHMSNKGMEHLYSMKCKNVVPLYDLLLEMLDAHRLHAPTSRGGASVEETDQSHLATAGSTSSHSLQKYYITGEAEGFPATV

For the next experiment, the target named is Estrogen receptor beta (Homo sapiens, UniProt Q92731). As to the kind of experiment: ERβ–SRC-3 coactivator interaction inhibitors, confirmation, orthogonal assay, biochemical, ELISA, streptavidin-HRP readout (AID 1060). (An ELISA detects its analyte on a solid surface through an enzyme-linked reagent.)
Chain of Estrogen receptor beta (Q92731 whole entry): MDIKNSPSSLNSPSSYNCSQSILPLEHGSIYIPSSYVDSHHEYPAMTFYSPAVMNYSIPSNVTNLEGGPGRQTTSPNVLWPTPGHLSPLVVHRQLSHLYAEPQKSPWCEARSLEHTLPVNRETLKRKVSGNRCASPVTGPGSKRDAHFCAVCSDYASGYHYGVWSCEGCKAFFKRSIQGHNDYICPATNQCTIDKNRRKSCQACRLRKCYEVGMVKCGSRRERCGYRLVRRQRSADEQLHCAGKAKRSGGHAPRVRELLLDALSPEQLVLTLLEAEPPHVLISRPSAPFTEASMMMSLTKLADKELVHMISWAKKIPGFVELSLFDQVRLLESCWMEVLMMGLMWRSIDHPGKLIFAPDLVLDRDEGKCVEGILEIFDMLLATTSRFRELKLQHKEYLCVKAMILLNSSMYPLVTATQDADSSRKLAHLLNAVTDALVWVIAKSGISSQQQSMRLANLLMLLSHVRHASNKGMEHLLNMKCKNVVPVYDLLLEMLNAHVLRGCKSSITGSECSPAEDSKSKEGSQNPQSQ
Experiment [1] is described as follows: Cytotoxicity screening for potential Inhibitors of Bacterial Capsule Biogenesis. [Related pubchem assays (depositor defined):AID488970]. Type of experiment: functional.
Experiment [2] has as its target T2, Histone-lysine N-methyltransferase NSD2 (Homo sapiens, UniProt O96028).
T2 sequence (O96028 whole entry): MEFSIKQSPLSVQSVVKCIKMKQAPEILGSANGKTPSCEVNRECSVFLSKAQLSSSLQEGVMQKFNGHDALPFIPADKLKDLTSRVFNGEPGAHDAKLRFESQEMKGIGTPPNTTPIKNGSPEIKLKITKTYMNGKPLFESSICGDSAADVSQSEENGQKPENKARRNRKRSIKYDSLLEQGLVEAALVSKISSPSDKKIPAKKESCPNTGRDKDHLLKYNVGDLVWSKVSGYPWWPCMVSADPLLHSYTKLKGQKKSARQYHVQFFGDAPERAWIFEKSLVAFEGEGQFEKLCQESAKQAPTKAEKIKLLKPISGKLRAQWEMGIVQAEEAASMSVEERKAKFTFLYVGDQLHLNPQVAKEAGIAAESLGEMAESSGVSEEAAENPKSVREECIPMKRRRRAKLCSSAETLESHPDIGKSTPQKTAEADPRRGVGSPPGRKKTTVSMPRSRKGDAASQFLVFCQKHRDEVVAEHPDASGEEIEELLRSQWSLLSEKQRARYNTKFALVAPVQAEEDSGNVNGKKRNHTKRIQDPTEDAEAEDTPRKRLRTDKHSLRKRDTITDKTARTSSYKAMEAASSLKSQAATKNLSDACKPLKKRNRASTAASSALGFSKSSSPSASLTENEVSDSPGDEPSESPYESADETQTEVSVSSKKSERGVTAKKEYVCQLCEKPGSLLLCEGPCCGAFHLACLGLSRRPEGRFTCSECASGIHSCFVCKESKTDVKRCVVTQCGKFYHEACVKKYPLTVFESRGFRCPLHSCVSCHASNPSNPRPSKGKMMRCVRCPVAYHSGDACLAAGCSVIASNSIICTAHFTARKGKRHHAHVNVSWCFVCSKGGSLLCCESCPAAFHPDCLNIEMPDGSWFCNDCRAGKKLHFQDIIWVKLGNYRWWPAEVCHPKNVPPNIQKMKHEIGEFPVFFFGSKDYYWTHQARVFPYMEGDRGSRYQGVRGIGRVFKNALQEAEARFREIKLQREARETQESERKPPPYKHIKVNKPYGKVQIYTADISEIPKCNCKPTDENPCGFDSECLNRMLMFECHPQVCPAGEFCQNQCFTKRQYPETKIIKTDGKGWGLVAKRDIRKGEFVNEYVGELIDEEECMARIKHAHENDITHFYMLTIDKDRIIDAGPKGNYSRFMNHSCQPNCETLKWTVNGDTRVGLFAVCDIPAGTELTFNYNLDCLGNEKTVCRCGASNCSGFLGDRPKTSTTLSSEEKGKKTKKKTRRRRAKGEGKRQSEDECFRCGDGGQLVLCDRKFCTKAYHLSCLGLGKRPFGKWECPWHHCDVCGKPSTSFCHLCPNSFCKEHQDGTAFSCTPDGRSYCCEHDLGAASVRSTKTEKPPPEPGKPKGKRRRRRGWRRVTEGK
In kind it is biochemical.

Experiment [3] concerns the target T3, Zinc finger protein mex-5 (Caenorhabditis elegans, UniProt Q9XUB2).
T3 sequence (Q9XUB2 whole entry): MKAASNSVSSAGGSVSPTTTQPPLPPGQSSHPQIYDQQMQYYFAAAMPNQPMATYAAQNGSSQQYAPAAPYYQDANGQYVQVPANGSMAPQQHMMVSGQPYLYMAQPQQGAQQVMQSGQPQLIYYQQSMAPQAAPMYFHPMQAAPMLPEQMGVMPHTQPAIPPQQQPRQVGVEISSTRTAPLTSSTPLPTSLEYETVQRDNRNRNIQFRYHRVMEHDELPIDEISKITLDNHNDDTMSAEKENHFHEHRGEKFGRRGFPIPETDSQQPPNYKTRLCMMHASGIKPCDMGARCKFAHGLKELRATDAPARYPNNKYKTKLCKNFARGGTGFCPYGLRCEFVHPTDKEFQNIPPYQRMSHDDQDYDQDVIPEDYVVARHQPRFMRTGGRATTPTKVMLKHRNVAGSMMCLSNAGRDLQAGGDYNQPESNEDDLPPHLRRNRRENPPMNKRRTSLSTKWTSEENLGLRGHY
As to the kind of experiment: MEX-5/TCR-2 RNA interaction inhibitors, dose response, biochemical, C. elegans, fluorescence polarization (AID 1960). In general terms: Fluorescence polarisation rises when a labelled molecule tumbles more slowly, as on binding a larger partner.

For experiment [4], the target named is T4, RNA-binding protein pos-1 (Caenorhabditis elegans, UniProt G5EF15).
T4 sequence (G5EF15 whole entry): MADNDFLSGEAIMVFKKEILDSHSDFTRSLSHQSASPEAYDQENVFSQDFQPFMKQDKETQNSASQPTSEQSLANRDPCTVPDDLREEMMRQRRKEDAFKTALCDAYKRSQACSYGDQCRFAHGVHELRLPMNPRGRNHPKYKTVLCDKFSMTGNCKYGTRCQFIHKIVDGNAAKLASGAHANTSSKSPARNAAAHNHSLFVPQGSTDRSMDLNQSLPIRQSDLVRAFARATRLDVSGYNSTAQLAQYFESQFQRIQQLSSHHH
As to the kind of experiment: inhibitors of POS-1/mex-3 RNA binding, dose response, biochemical, fluorescence polarization (AID 1964).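 Further: purified POS-1 fused to maltose binding protein made in E. coli; potency of compounds blocking POS-1 binding to fluorescent RNA.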

A further experiment deals with Prothrombin (Bos taurus, UniProt P00735). As to the kind of experiment: thrombin inhibition, dose response, biochemical, fluorescence polarization, uHTS hits (AID 602369). In kind it is functional.
Experiment [5] addresses 72 kDa type IV collagenase (Homo sapiens, UniProt P08253). As to the kind of experiment: Dose Response validation of uHTS RPN11 inhibitor hits using a MMP-2 Fluorescence assay. In kind it is functional.
Experiment [6] concerns the target G-protein coupled receptor 35 (Homo sapiens, UniProt Q9HC97). As to the kind of experiment: GPR35 antagonists blocking zaprinast-driven arrestin recruitment, primary screen, imaging, U2OS, beta-arrestin-GFP, zaprinast agonist (AID 2058).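 Further: antagonist potency meaning inhibition of agonist-induced arrestin redistribution.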 In kind it is functional. In general terms: Recruitment of arrestin is a read-out of receptor activation apart from second messengers.

For experiment [7], the target named is 26S proteasome non-ATPase regulatory subunit 14 (Homo sapiens, UniProt O00487). Briefly: inhibition of proteasome subunit RPN11 – biochemical, fluorescence polarization, uHTS hits, confirmation (AID 602368). Type of experiment: functional.
Chain of 26S proteasome non-ATPase regulatory subunit 14 (O00487 whole entry): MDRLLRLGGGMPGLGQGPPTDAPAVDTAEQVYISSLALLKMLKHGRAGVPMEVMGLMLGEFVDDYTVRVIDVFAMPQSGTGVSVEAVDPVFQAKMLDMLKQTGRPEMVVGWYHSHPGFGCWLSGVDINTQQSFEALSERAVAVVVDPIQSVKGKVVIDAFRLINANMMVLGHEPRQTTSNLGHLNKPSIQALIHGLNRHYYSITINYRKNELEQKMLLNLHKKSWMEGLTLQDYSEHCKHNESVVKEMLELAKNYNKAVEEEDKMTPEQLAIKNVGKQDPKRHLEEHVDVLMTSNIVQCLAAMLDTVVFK
In experiment [8] the target is Phosphoethanolamine/phosphocholine phosphatase (Homo sapiens, UniProt Q8TCT1). As to the kind of experiment: SAR assay for compounds that inhibit PHOSPHO1. [Related pubchem assays (depositor defined):AID1545, AID1565, AID1574].
Chain of Phosphoethanolamine/phosphocholine phosphatase (Q8TCT1 whole entry): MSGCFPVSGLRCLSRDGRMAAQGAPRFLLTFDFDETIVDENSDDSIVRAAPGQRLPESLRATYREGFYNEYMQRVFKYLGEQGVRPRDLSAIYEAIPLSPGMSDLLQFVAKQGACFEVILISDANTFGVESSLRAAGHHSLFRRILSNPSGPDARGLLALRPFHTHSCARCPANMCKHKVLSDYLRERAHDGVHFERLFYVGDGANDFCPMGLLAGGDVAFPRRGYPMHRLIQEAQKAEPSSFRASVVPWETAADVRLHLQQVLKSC
Experiment [9] has as its target T5, Short transient receptor potential channel 4 (Mus musculus, UniProt Q9QUQ5).
T5 sequence (Q9QUQ5 whole entry): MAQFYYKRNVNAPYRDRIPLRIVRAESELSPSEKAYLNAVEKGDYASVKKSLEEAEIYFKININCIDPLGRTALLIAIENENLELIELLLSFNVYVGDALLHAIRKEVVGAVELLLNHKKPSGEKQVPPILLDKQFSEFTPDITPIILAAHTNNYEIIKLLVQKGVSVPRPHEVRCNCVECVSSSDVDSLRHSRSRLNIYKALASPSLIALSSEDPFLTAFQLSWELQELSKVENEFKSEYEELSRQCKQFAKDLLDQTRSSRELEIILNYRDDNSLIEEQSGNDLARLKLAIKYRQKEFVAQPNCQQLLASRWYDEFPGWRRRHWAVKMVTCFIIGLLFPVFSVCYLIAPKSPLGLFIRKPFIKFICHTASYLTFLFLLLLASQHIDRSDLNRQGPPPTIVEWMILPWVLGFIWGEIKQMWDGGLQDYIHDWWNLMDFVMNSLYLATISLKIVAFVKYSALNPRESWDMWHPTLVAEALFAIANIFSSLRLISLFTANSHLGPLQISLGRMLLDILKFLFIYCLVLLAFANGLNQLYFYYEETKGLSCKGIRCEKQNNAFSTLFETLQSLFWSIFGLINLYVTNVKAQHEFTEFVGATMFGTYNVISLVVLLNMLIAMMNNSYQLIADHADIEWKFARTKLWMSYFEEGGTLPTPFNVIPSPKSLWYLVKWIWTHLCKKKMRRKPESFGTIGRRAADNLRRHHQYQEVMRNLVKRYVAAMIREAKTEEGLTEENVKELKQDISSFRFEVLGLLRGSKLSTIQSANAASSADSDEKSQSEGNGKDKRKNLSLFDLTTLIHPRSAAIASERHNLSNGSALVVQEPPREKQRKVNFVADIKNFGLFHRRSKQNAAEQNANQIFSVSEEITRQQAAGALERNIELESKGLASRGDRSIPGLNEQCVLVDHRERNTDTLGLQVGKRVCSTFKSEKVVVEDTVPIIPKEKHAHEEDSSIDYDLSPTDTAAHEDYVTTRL
Briefly: mouse TRPC4 channel inhibitors, dose response, cell-based, HEK293 TRPC4/mu-opioid, Fluo-4 calcium (AID 434942).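 Further: potency of inhibitors blocking the TRPC4 calcium response.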 Type of experiment: functional.

Experiment [10] has as its target T6, Neuropeptides B/W receptor type 1 (Homo sapiens, UniProt P48145).
T6 sequence (P48145 whole entry): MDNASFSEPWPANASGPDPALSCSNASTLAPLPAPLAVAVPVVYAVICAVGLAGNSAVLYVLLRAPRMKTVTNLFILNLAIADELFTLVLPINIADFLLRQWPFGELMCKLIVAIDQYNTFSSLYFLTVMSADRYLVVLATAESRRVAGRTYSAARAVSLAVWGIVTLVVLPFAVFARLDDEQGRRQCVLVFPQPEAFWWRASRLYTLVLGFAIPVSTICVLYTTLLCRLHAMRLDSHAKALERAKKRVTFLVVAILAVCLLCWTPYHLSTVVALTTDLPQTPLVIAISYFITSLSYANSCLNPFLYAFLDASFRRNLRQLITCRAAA
Briefly: GPR7 antagonist potency, late-stage follow-up, cell-based, fluorescence, dose response (AID 463251). In kind it is functional.

In experiment [11] the target is Melanin-concentrating hormone receptor 1 (Homo sapiens, UniProt Q99705). Briefly: Late-stage fluorescence-based counterscreen for antagonists of the G-protein coupled receptor 7 (GPR7): cell-based dose response assay to identify antagonists of the melanin-concentrating hormone receptor 1 (MCHR1). [Related pubchem assays (depositor defined):AID1861, AID1880, AID1952, AID2148, AID2251, AID2257, AID485339]. In kind it is functional.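 Further: stimulated with 30 nM MCH peptide agonist.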
Chain of Melanin-concentrating hormone receptor 1 (Q99705 whole entry): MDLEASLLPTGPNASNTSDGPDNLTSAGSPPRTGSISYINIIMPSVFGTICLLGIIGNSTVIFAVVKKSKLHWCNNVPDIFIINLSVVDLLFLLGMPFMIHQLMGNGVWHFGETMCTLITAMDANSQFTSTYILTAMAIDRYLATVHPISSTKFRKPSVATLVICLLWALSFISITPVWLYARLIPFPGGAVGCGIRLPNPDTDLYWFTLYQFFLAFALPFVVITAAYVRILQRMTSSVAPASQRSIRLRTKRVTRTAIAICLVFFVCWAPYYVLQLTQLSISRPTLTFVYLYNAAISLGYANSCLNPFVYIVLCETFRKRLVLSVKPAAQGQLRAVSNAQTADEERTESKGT

SMILES strings stand for the structures. The source made the active and inactive calls.

Chain of G-protein coupled receptor 35 (Q9HC97 whole entry): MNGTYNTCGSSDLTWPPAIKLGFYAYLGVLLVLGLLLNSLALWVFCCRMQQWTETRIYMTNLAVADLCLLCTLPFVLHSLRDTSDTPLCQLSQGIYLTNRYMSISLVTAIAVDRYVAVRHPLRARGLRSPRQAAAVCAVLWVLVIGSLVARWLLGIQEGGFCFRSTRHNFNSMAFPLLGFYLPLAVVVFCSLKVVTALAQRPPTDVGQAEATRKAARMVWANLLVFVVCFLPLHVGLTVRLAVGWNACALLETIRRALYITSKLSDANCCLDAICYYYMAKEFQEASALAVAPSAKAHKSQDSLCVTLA
Chain of 72 kDa type IV collagenase (P08253 whole entry): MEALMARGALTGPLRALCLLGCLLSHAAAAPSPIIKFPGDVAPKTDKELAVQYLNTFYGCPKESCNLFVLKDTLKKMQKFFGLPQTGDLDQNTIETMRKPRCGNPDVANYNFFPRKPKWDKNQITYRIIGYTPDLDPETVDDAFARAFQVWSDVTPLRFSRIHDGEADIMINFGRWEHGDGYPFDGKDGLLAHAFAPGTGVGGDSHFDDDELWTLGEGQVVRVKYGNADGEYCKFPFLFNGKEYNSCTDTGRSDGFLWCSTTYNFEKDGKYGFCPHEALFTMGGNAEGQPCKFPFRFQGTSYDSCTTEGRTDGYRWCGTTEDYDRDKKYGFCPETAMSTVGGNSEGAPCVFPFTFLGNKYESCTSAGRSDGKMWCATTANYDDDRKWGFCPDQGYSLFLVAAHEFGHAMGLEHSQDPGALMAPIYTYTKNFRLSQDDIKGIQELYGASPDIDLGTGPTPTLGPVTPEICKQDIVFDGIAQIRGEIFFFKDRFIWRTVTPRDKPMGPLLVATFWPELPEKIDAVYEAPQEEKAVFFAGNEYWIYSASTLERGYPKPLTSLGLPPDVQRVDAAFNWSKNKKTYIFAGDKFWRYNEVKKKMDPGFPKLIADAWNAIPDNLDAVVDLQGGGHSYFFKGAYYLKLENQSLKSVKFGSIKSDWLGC
Chain of Bcl-2-like protein 10 (Q9HD36 whole entry): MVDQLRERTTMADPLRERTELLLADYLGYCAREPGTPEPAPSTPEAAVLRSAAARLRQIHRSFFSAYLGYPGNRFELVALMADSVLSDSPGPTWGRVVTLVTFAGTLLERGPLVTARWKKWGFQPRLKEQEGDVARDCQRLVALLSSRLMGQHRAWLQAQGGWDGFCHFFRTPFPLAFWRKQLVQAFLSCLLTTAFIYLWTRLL

As a reminder, the IC50 is the concentration at which inhibition is half-maximal. With `COc1ccccc1NCCC(=O)OCC(=O)NCc1ccco1`, the IC50 on Bcl-2-like protein 10 was 69.1 µM (inactive).

The CC50 is the concentration giving 50% cytotoxicity. By AC50 is commonly meant the concentration at which the activity in the assay is half-maximal. For orientation: EC50 means the concentration at which the effect is half-maximal. Turning to `CCC1=NN2C(=N)/C(=C\c3ccc(SCc4ccco4)o3)C(=O)N=C2S1`, the IC50 was 21 µM (active) at Estrogen receptor and > 50 µM (not active) at Estrogen receptor beta. For the same molecule, the CC50 in [1] is > 100 µM (active). The AC50 in experiment [2] was 16.2 µM (active). For the same molecule, the EC50 was 6.85 µM (active) in experiment [3] and 4.36 µM (active) in experiment [4].

For `O=C(/C=C/c1ccco1)Nc1cccc(C(=O)Nc2ccccc2C(=O)O)c1`, the IC50 is 39.8 µM (active) on Prothrombin, 97.4 µM (active) in experiment [5], < 0.5 µM (active) in experiment [6] and 23.1 µM (active) in experiment [7]. Besides, the AC50 in experiment [2] is 18.6 µM (active).

As to `c1ccc(CNc2nc(-c3ccccc3)[n+](-c3ccccc3)s2)cc1`, the IC50 in experiment [8] is 2.59 µM (inactive).

Take `CCOC(=O)C1(Cc2cccc(OC)c2)CCN(Cc2cccc(O)c2)CC1`: the EC50 in experiment [9] was 9.44 µM (active).

As for `O=c1c(Oc2ccc(O)cc2)c(Cl)cnn1-c1ccccc1`, the IC50 in [10] is 2.8 µM (active); in experiment [11] it was 11.1 µM (inactive).
